Data reported in the supplement of paper PMC10307832.

Columns and labels:
Test in all cases: relative viability (nuclei count vs DMSO), 5 days (fraction); higher = more cells survive
[1] = compound: CN(c1ncccc1CNc1nc(Nc2ccc3c(c2)CC(=O)N3)ncc1C(F)(F)F)S(C)(=O)=O + CCNC(=O)c1noc(-c2cc(C(C)C)c(O)cc2O)c1-c1ccc(CN2CCOCC2)cc1 [Luminespib] (partner 0.01 µM)
In short: (§1)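 Lung cancer cell lines were seeded in 1536-well plates and dosed by pin tool the next day, with either a single drug or a fixed anchor-drug dose combined with five library-drug doses (not always all listed) spaced in √10 steps. Five days later, one step fixed the cells and stained their nuclei (final 0.05% Triton X-100, 1% formaldehyde, 1 ug/ml Hoechst), and nuclei were counted on 4× images. Relative viability is the nuclei count in treated wells divided by the count in vehicle wells, and each value is the median of duplicate plates.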

[2] = compound: CN(c1ncccc1CNc1nc(Nc2ccc3c(c2)CC(=O)N3)ncc1C(F)(F)F)S(C)(=O)=O + COc1cc2c(Oc3ccc(NC(=O)C4(C(=O)Nc5ccc(F)cc5)CC4)cc3F)ccnc2cc1OCCCN1CCOCC1 [Foretinib] (partner 0.25 µM)
In short: as §1

[3] = compound: CN(c1ncccc1CNc1nc(Nc2ccc3c(c2)CC(=O)N3)ncc1C(F)(F)F)S(C)(=O)=O + Cc1nc(Nc2ncc(C(=O)Nc3c(C)cccc3Cl)s2)cc(N2CCN(CCO)CC2)n1 [Dasatinib] (partner 0.075 µM)
In short: as §1

[4] = compound: CN(c1ncccc1CNc1nc(Nc2ccc3c(c2)CC(=O)N3)ncc1C(F)(F)F)S(C)(=O)=O + Nc1ncn([C@H]2C[C@H](O)[C@@H](CO)O2)c(=O)n1 [Decitabine] (partner 2 µM)
In short: as §1

Cell Line | relative viability ([1]; first compound 0.01 µM) | relative viability ([1]; first compound 0.03162 µM) | relative viability ([1]; first compound 0.1 µM) | relative viability ([1]; first compound 0.3162 µM) | relative viability ([1]; first compound 1 µM) | relative viability ([2]; first compound 0.01 µM) | relative viability ([2]; first compound 0.03162 µM) | relative viability ([2]; first compound 0.1 µM) | relative viability ([2]; first compound 0.3162 µM) | relative viability ([2]; first compound 1 µM) | relative viability ([3]; first compound 0.01 µM) | relative viability ([3]; first compound 0.03162 µM) | relative viability ([3]; first compound 0.1 µM) | relative viability ([3]; first compound 0.3162 µM) | relative viability ([3]; first compound 1 µM) | relative viability ([4]; first compound 0.01 µM) | relative viability ([4]; first compound 0.03162 µM) | relative viability ([4]; first compound 0.1 µM) | relative viability ([4]; first compound 0.3162 µM) | relative viability ([4]; first compound 1 µM)
ChaGo-K-1 | 0.479 | 0.629 | 0.635 | 0.706 | 0.556 | 0.968 | 0.894 | 0.946 | 0.935 | 0.782 | 0.656 | 0.531 | 0.52 | 0.614 | 0.531 | 0.565 | 0.549 | 0.438 | 0.527 | 0.492
EBC-1 | – | – | – | – | – | 0.107 | 0.119 | 0.102 | 0.105 | 0.0994 | – | – | – | – | – | – | – | – | – | –
EKVX | 0.923 | 1.03 | 0.839 | 0.869 | 0.786 | 0.815 | 0.924 | 1.15 | 0.741 | 0.802 | 0.464 | 0.425 | 0.447 | 0.411 | 0.347 | 0.372 | 0.327 | 0.301 | 0.342 | 0.335
EMC-BAC-2 | 1.16 | 1.27 | 1.17 | 1.16 | 0.994 | 0.933 | 1.18 | 0.989 | 0.944 | 0.943 | 0.247 | 0.308 | 0.279 | 0.295 | 0.271 | 0.994 | 1.02 | 0.915 | 0.963 | 0.982
EPLC-272H | 0.6 | 0.487 | 0.265 | 0.317 | 0.251 | 0.569 | 0.776 | 0.727 | 0.844 | 0.69 | 0.338 | 0.27 | 0.218 | 0.209 | 0.135 | 0.367 | 0.339 | 0.357 | 0.397 | 0.336
H3255 | 1.03 | 0.963 | 0.796 | 0.933 | 0.904 | 0.88 | 0.818 | 0.867 | 0.981 | 0.769 | 0.368 | 0.347 | 0.356 | 0.385 | 0.378 | 0.633 | 0.587 | 0.572 | 0.552 | 0.615
HARA | 0.589 | 0.887 | 0.602 | 0.606 | 0.549 | 1.06 | 0.864 | 0.905 | 0.871 | 0.664 | 0.228 | 0.17 | 0.19 | 0.201 | 0.217 | 0.66 | 0.599 | 0.492 | 0.597 | 0.573
HCC-15 | 0.543 | 0.456 | 0.349 | 0.407 | 0.301 | 0.968 | 1.06 | 0.963 | 0.951 | 0.916 | 0.541 | 0.602 | 0.497 | 0.428 | 0.408 | 0.639 | 0.629 | 0.548 | 0.496 | 0.523
HCC-44 | 1.04 | 1.5 | 1.24 | – | 0.933 | – | – | – | – | – | – | – | – | – | – | 0.871 | 0.956 | 0.898 | 0.977 | 0.996
HCC-78 | – | – | – | – | – | 0.543 | 0.571 | 0.533 | 0.562 | 0.514 | 0.312 | 0.33 | 0.325 | 0.256 | 0.296 | 0.755 | 0.699 | 0.719 | 0.636 | 0.697
